{"source": "patent US12458818B2", "about": "“Anti-trophoblast cell surface antigen 2 (TROP2) antibodies and antibody drug conjugates comprising same” (CSPC MEGALITH BIOPHARMACEUTICAL CO., LTD., priority 2019, dated 2025)", "molecules": {"B1": {"name": "1B3: mouse anti-human TROP2 antibody, VH SEQ ID NO: 22, VL SEQ ID NO: 27 (antibody, V domains shown)", "VH": "QVQLQQSGAELVRPGVSVKISCKGSGYTFTDYSINWVKQSHAKSLEWIGVISTYYGDASYNQKFKGKATMTVDKSSSTAYMELARLTSEDSAIYYCARYGDGYNQFDYWGQGTTLTVSS", "VL": "DIVLTQSPASLAVSLGQRATISCRVSESVDSYGNNFMHWYQQKPGQPPKLLIYRASNLESGVPARFSGSGSGTDFTLTINPMEADDVATYYCQQSYEDPYTFGGGTKLEIK"}, "B2": {"name": "15A10: mouse anti-human TROP2 antibody, VH SEQ ID NO: 23, VL SEQ ID NO: 28 (antibody, V domains shown)", "VH": "EVQLEQSGPGLVQPSQSLSITCTVSGFSLTRYGVHWVRQSPGRSLEWLGVIWSGGNTDYNAAFISRLTITKDNSKSQVFFKMNSLQPNDTGVYYCAREDRYVGEFAYWGQGTLVTVSA", "VL": "B1 VL with P8T, V25A, N35S, M37I, V62I, G72R, M82V, Y96N, Y100R"}, "B3": {"name": "17B6: mouse anti-human TROP2 antibody, VH SEQ ID NO: 26, VL SEQ ID NO: 31 (antibody, V domains shown)", "VH": "QVQLQQSGAELVRPGVSVKISCKGSGYTFTDYGMNWVKQSHAKSLEWIGVISTFYGDANYNQKFKGKATMTVDKSSSTAYMELARLTSEDSAIYYCARRGNYDSMDYWGQGTSVTVSS", "VL": "B1 VL with A9V, S10F, V25A, N35S, V62I, G72R, M82V, A88E, Y100P, K111E"}, "B4": {"name": "15D9: mouse anti-human TROP2 antibody, VH SEQ ID NO: 24, VL SEQ ID NO: 29 (antibody, V domains shown)", "VH": "QVQLQQSGAELVRPGVSVKISCKGSGYTFTDYSIHWVKQSHAKSLEWIGVISSYYGDATYNQKFKGKATMTVDKSSSTAYMELARLTSEDSAIYYCALLGAYNYFDYWGQGTTLTVSS", "VL": "B1 VL with V25A, N35S, I52V, V62I, G72R, M82V, Y100P"}, "B5": {"name": "17D1: mouse anti-human TROP2 antibody, VH SEQ ID NO: 25, VL SEQ ID NO: 30 (antibody, V domains shown)", "VH": "B4 VH with V50L, S53T, N61T", "VL": "B1 VL with V25A, N35S, I52V, V62I, G72R, M82V, V87I, Y100P"}}, "key": {"HCC38": {"tested_on": "HCC38", "assay": "In vitro cytotoxicity assay, HCC38", "assay_type": "cell-based", "settings": "HCC38 TROP2+ human mammary ductal carcinoma cell line", "experimental": "(§1) Additional in vitro cytotoxicity assays were performed to test the ability of DP002-HC1LC1-ADC to inhibit the growth of MDA-MB-468 (a TROP2^+ human breast adenocarcinoma cell line) and HCC38 (a TROP2^+ human mammary ductal carcinoma cell line)."}, "MDA-MB-468": {"tested_on": "MDA-MB-468", "assay": "In vitro cytotoxicity assay, MDA-MB-468", "assay_type": "cell-based", "settings": "MDA-MB-468 TROP2+ human breast adenocarcinoma cell line", "experimental": "as §1"}, "NCI-N87": {"tested_on": "NCI-N87", "assay": "In vitro cytotoxicity assay, NCI-N87", "assay_type": "cell-based", "settings": "NCI-N87 human gastric carcinoma cell line", "experimental": "(§2) DP002-HC1LC1-ADC is an antibody-drug conjugate comprising anti-TROP antibody DP002-HC1LC1, which comprises HCl (SEQ ID NO: 52) and LC 1 (SEQ ID NO: 58), conjugated to monomethyl auristatin E (MMAE) at a drug-antibody ratio (DAR) of 2. A DP002-HC1LC1-ADC was prepared using a conjugation method described in WO 2015/191883. A series of in vitro cytotoxicity assays were performed to assess the ability of DP002-HC1LC1-ADC to inhibit the growth of the following TROP2 expressing cancer cell lines: HCC1954 (a human breast carcinoma cell line), BxPC-3 (a human pancreatic adenocarcinoma cell line), and NCI-N87 (a human gastric carcinoma cell line). Experiments using staurospirone, a positive apoptosis control, and anti-TROP2 antibody DP002-HC4LC5, which comprises HC4 (SEQ ID NO: 55) and LC5 (SEQ ID NO: 62), were performed in parallel."}, "BxPC-3": {"tested_on": "BxPC-3", "assay": "In vitro cytotoxicity assay, BxPC-3", "assay_type": "cell-based", "settings": "BxPC-3 human pancreatic adenocarcinoma cell line", "experimental": "as §2"}, "HCC1954": {"tested_on": "HCC1954", "assay": "In vitro cytotoxicity assay, HCC1954", "assay_type": "cell-based", "settings": "HCC1954 human breast carcinoma cell line", "experimental": "as §2"}, "human TROP2": {"molecular_target": "T1, human TROP2 (Homo sapiens, UniProt P09758)", "T1 sequence (P09758 27-323)": "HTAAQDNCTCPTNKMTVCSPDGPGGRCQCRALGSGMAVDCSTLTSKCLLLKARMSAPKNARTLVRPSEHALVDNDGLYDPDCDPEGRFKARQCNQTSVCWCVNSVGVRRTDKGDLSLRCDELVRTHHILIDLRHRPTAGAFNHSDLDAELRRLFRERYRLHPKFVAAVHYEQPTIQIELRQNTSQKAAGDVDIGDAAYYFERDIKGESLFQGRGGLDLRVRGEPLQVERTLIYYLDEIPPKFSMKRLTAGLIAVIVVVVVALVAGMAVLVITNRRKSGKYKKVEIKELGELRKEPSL", "assay": "Surface plasmon resonance kinetics and affinities (Table 8B)", "assay_type": "binding", "settings": "SPR, analyte TROP2", "experimental": "Surface plasmon resonance (SPR) experiments were performed to determine the kinetics and affinities of certain antibodies shown in Table 8A."}, "SKBR3 cells": {"tested_on": "SKBR3 cells", "assay": "FACS internalization of anti-TROP2 antibodies by SKBR3 cells", "assay_type": "cell-based, human", "settings": "20 nM antibody mixed with 60 nM pHAb-labelled secondary antibody, overnight incubation", "experimental": "FACS experiments were performed to verify that antibodies 1B3, 15D9, 15A10, 17B6, and 17D1 were internalized by SKBR3 cells. SKBR3 is a TROP2-expressing human breast carcinoma cell line. Briefly, 1.2×10^5 SKBR3 cells were seeded into each 12-well plates and cultured overnight. 300 μL of 20 nM control antibody, 1B3, 15D9, 15A10, 17B6, or 17D1 (in DMEM-10) were mixed with 300 μL 60 nM pHAb-labelled secondary antibody for 15 minutes at room temperature in the dark. The labeled antibodies mixtures were added to the SKBR3 cells and incubated overnight. Following overnight incubation, the SKBR3 cells were trypsinized, washed twice with 1% BSA/PBS, and analyzed via flow cytometry."}}, "note": "Residue numbers refer to the chain shown, from its start."}
{"molecule": "CN[C@@H]1C[C@H]2O[C@@](C)([C@@H]1OC)n1c3ccccc3c3c4c(c5c6ccccc6n2c5c31)C(=O)NC4", "note": "[Staurosprione, staurospirone]", "values": [{"measurement": "IC50", "setting": "HCC38", "value": 4.26, "unit": "nM"}, {"measurement": "Max % inhibition", "setting": "HCC38", "value": 99.44, "unit": "%"}, {"measurement": "IC50", "setting": "MDA-MB-468", "value": 14.7, "unit": "nM"}, {"measurement": "Max % inhibition", "setting": "MDA-MB-468", "value": 92.38, "unit": "%"}, {"measurement": "IC50", "setting": "NCI-N87", "value": 9.31, "unit": "nM"}, {"measurement": "Max % inhibition", "setting": "NCI-N87", "value": 93.44, "unit": "%"}, {"measurement": "Max % inhibition", "setting": "NCI-N87; listed as staurospirone", "value": "greater than 93%"}, {"measurement": "IC50", "setting": "BxPC-3", "value": 5.37, "unit": "nM"}, {"measurement": "Max % inhibition", "setting": "BxPC-3", "value": 98.02, "unit": "%"}, {"measurement": "Max % inhibition", "setting": "BxPC-3; listed as staurospirone", "value": "greater than 93%"}, {"measurement": "IC50", "setting": "HCC1954", "value": 21.7, "unit": "nM"}, {"measurement": "Max % inhibition", "setting": "HCC1954", "value": 95.12, "unit": "%"}, {"measurement": "Max % inhibition", "setting": "HCC1954; listed as staurospirone", "value": "greater than 93%"}]}
{"molecule": "Control: biosimilar of the anti-TROP2 antibody sacituzumab [reference compound]", "values": [{"measurement": "Kd", "setting": "human TROP2", "value": 0.4, "unit": "nM"}, {"measurement": "Rmax", "setting": "human TROP2", "value": 50.7}, {"measurement": "ka", "setting": "human TROP2", "value": 511000, "unit": "M⁻¹ s⁻¹"}, {"measurement": "kd", "setting": "human TROP2", "value": 0.000204, "unit": "s⁻¹"}]}
{"molecule": "B1", "values": [{"measurement": "internalization by SKBR3 cells (flow cytometry)", "setting": "SKBR3 cells", "value": "internalized"}]}
{"molecule": "B2", "values": [{"measurement": "internalization by SKBR3 cells (flow cytometry)", "setting": "SKBR3 cells", "value": "internalized"}]}
{"molecule": "B3", "values": [{"measurement": "internalization by SKBR3 cells (flow cytometry)", "setting": "SKBR3 cells", "value": "internalized"}]}
{"molecule": "B4", "values": [{"measurement": "internalization by SKBR3 cells (flow cytometry)", "setting": "SKBR3 cells", "value": "internalized"}]}
{"molecule": "B5", "values": [{"measurement": "internalization by SKBR3 cells (flow cytometry)", "setting": "SKBR3 cells", "value": "internalized"}]}
